This experiment has as its target Tyrosine-protein kinase JAK2 (Homo sapiens, UniProt O60674). Description: Tyrosine Kinase Assay: The assays were performed in V-bottom 384-well plates. […] The reaction was initiated by the combination of JAK2 with substrates and test compounds. The reaction was incubated at room temperature for 60 min. and terminated by adding 45 ul of 35 mM EDTA to each sample. The reaction mixture was analyzed on the Caliper LABCHIP 3000 by electrophoretic separation of the fluorescent substrate and phosphorylated product.

SMILES strings stand for the structures.

The source of these data is ChEMBL document CHEMBL3638719, “Carbazole and carboline kinase inhibitors” (2014).

As a reminder, the IC50 is the concentration that gives 50% inhibition.

Chain of Tyrosine-protein kinase JAK2 (O60674 whole entry): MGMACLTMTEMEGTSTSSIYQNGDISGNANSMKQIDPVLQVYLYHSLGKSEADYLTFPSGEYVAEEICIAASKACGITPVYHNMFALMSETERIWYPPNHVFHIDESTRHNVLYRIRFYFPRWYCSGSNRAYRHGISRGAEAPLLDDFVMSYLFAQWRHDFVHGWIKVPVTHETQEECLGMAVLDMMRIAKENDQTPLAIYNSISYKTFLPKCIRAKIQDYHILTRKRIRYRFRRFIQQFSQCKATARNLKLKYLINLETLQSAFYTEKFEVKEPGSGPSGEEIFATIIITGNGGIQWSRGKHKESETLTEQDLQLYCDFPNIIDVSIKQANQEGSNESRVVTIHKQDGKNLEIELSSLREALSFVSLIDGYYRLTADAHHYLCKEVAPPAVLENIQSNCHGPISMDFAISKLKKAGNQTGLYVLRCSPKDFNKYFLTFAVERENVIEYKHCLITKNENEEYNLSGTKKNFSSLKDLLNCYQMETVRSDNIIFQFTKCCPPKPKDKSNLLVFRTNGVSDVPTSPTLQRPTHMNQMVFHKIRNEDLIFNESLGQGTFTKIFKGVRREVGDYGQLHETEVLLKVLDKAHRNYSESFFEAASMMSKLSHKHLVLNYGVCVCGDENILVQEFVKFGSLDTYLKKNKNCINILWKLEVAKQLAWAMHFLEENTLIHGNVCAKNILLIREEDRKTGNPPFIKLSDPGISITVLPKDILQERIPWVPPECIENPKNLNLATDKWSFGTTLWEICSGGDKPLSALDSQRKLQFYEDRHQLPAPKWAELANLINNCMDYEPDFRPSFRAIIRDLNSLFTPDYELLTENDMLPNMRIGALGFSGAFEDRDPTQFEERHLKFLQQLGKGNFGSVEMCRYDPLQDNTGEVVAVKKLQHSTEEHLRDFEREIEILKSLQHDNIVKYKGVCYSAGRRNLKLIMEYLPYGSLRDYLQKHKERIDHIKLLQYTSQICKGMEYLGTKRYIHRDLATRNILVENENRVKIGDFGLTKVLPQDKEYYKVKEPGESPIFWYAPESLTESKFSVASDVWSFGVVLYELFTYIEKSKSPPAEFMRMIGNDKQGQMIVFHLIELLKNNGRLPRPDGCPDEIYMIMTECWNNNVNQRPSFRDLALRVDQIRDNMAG

As for `COc1cccc(-c2cc(C(N)=O)c3[nH]c4cc(NC(=O)OC(C)(C)C)ccc4c3c2)c1`, the IC50 was 0.16 µM.
Then `COc1ccc(-c2cc(C(N)=O)c3[nH]c4cc(C(=O)N5CCCC(C)(O)C5)ccc4c3c2)cc1F` (configuration not stated), with 0.001 µM.
